Measurements reported in publication PMC11930985 (Nature Communications, 2025).
Values after ≈ are worked out from the molar mass of the structure shown. Values joined by “and” are separate entries in the source; they are usually repeats but may differ in a detail not shown here. Identical values can stand only once. Like-named read-outs stand apart in the source and are kept apart here.

Key:
Ret [1] = target: Ret; parameters: method as in Investigator's Brochure (IB) version 5.0; details: ref Investigator's Brochure (IB) version 5.0; cited from earlier work
Ret [2] = test system: Ret; parameters: method as in Investigator's Brochure (IB) version 5.0; details: ref Investigator's Brochure (IB) version 5.0; cited from earlier work; remark: listed apart in the source
healthy male subjects = test system: healthy male subjects; parameters: method as in Protocol BGBC001; details: ref Protocol BGBC001, cited from earlier work
Flt4 = test system: Flt4; parameters: method as in Investigator's Brochure (IB) version 5.0; details: ref Investigator's Brochure (IB) version 5.0; cited from earlier work
pSTAT5 Y694 = assay: CyTOF maximal inhibition in Undefined/Immature Myeloid cells: pSTAT5; assay type: in vivo, human
Text: Pharmacodynamic endpoints included the measurement of inhibition of pAXL, pERK, pAKT, pS6 and pSTAT1/3/5 in blast cells (defined as cells with abnormal surface marker expression as compared to healthy donor peripheral blood mononuclear cells and undefined/immature myeloid cells (defined as cells carrying myeloid markers but lacking distinguishing terminal differentiation markers). Mass cytometry time of flight (CyTOF) was used for the determination of the pharmacodynamic markers using a previously validated and tested panel of mass-tagged antibodies[39],[40]. The antibodies in the panel are listed in Supplementary Table 5. Briefly, fixed leukocytes from peripheral blood were barcoded using a 20-plex metal barcoding kit (Standard Biotools, Cell-ID 201060) according to manufacturer’s protocol, allowing all the samples from a single individual to be stained and analysed in parallel. All analysis runs included barcoded peripheral blood mononuclear cells (PBMCs) from at least one healthy donor and an identical barcoded reference sample (mix of PBMCs from six healthy donors). […]
For each population, marker, and sample, the 95th percentile of the non-transformed expression values was calculated. […]

SMILES: Nc1nc(Nc2ccc3c(c2)CC[C@@H](N2CCCC2)CC3)nn1-c1cc2c(nn1)-c1ccccc1CCC2 [Bemcentinib]
- Kd (Ret [1]): 73 nM
- IC50 (Ret [2]): > 316 nM
- Non-Cardiac Chest Pain, Maximum Grade (CTCAE version 4.0) (healthy male subjects; 50 mg, 4 fasted, 1 fed): One
- Orthostatic hypotension, Maximum Grade (CTCAE version 4.0) (healthy male subjects; 100 mg, 4 fasted, 2 fed): One
- Abdominal Distension x 2, Maximum Grade (CTCAE version 4.0) (healthy male subjects; 150 mg, 4 fasted, 1 fed): One
- Diarrhoea, Maximum Grade (CTCAE version 4.0) (healthy male subjects; 400 mg, 4 fasted, 2 fed): One
- Diarrhoea, Maximum Grade (CTCAE version 4.0) (healthy male subjects; 600 mg, 4 fasted): One
- Flatulence, Maximum Grade (CTCAE version 4.0) (healthy male subjects; 600 mg, 4 fasted): One
- Nausea x 2, Maximum Grade (CTCAE version 4.0) (healthy male subjects; 600 mg, 4 fasted): One
- Nausea, Maximum Grade (CTCAE version 4.0) (healthy male subjects; 1000 mg, 4 fasted): One
- Diarrhoea, Maximum Grade (CTCAE version 4.0) (healthy male subjects; 1500 mg, 4 fasted): One
- Dizziness, Maximum Grade (CTCAE version 4.0) (healthy male subjects; 1500 mg, 4 fasted): One
- Headache, Maximum Grade (CTCAE version 4.0) (healthy male subjects; 1500 mg, 4 fasted): One
- Nausea, Maximum Grade (CTCAE version 4.0) (healthy male subjects; 1500 mg, 4 fasted): Two
- Vomiting, Maximum Grade (CTCAE version 4.0) (healthy male subjects; 1500 mg, 4 fasted): Two
- Serious adverse events (SAE) (healthy male subjects; single dose 50-1500 mg): No serious adverse events
- IC50 (Flt4): > 1000 nM
- EC50 (pSTAT5 Y694; Homo sapiens, Undefined/Immature Myeloid cells, N = 12 patients, read-out: EC50 (± standard error), pSTAT5 Y694 inhibition): 0.0913 ± 0.0014 µg/mL (≈ 0.18 µM)
- Maximum inhibition (percent) pSTAT5 (Y694) (pSTAT5 Y694; Supplementary Figure 1b, individual patients): 86.7% and 72.9% and 100% and 27.9% and 21.4% and 51.2% and 0% and 36% and 58.4%
